Measurements published in patent publication US8404643B2, “Metastin derivatives and use thereof” (priority 2005, dated 2013).
One block for each compound: values may come before it. Numbered stars: 1 amine (or outer) side, 2 acyl side, 3 side chain; on linkers, the order of the positions; unused ones are H or OH. Square brackets hold non-standard residues; d marks the D form. Peptide text beside a SMILES is read from it. Phe(3R-OH) = O=C([C@@H](N[*:1])[C@H](O[*:3])c1ccccc1)[*:2]; Phe(4-Cl) = N[C@@H](Cc1ccc(Cl)cc1)C(=O)O; Pro(4S-NH2) = N[C@@H]1CN[C@H](C(=O)O)C1; Phe(4-F) = N[C@@H](Cc1ccc(F)cc1)C(=O)O; Phe(2-F) = N[C@@H](Cc1ccccc1F)C(=O)O; Arg(Me) = CNC(=N)NCCC[C@H](N)C(=O)O; Dap(CONH2) = NC(=O)NC[C@H](N)C(=O)O; cisHyp = O=C(O)[C@@H]1C[C@H](O)CN1; Hyp = O=C(O)[C@@H]1C[C@@H](O)CN1; Aib = CC(C)(N)C(=O)O; azaGly = NNC(=O)O

Molecular target: T1, hOT7T175 (Homo sapiens, UniProt Q969F8)
T1 construct: expressed in transfected cells
Test: Assay for intracellular Ca ion level-increasing activity using FLIPR
Format: cell-based
Settings: hOT7T175/CHO cells, relative to Metastin (1-54)
Procedure, shortened: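 CHO/dhfr− cells stably transfected with hOT7T175, selected for high metastin response, loaded with Fluo3-AM for 1 h at 37 °C in HANKS/HBSS (pH 7.4) with probenecid. Peptides were diluted from 1×10^−3 M DMSO stock into HANKS/HBSS with 2.5 mM probenecid, 0.2% BSA, 0.1% CHAPS; intracellular Ca rise read by FLIPR.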

T1 sequence (Q969F8 whole entry L364H): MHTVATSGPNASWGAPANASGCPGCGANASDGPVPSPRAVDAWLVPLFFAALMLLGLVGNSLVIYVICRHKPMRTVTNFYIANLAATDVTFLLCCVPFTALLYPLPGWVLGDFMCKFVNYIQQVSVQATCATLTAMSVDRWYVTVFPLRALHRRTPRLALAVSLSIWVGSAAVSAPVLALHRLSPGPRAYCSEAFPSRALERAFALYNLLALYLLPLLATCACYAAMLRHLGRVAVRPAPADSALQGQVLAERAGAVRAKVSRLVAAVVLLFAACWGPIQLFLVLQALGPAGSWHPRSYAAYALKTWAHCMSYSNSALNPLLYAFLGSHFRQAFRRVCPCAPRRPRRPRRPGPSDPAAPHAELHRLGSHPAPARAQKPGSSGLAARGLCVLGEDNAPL

Specific Activity: intracellular Ca ion level-increasing activity [specific activity to Metastin (1-54)]: 0.5
Compound: CNC(=N)NCCC[C@H](NC(=O)[C@H](CC(C)C)NC(=O)NNC(=O)[C@H](Cc1ccccc1F)NC(=O)[C@@H](NC(=O)[C@H](CC(N)=O)NC(=O)[C@@H](Cc1c[nH]c2ccccc12)NC(=O)[C@@H](Cc1ccc(O)cc1)NC(C)=O)[C@@H](C)O)C(=O)N[C@@H](Cc1c[nH]c2ccccc12)C(N)=O [Compound No. 749, Ac-D-Tyr-D-Trp-Asn-Thr-Phe(2F)-AzaGly-Leu-Arg(Me)-Trp-NH2] (Ac-[dY][dW]NT[Phe(2-F)][azaGly]L[Arg(Me)]W-NH2)

Specific Activity: intracellular Ca ion level-increasing activity [specific activity to Metastin (1-54)]: 4.1
Compound: Ac-D-Tyr-Aze(3)-Asn-Thr-Phe-AzaGly-Leu-Arg(Me)-Trp-NH2 [Compound No. 730]

Specific Activity: intracellular Ca ion level-increasing activity [specific activity to Metastin (1-54)]: 1.0
Compound: CNC(=N)NCCC[C@H](NC(=O)[C@H](CC(C)C)NC(=O)NNC(=O)[C@@H](NC(=O)[C@@H](NC(=O)[C@H](CC(N)=O)NC(=O)[C@@H]1C[C@@H](O)CN1C(=O)[C@@H](Cc1ccc(O)cc1)NC(C)=O)[C@@H](C)O)[C@H](O)c1ccccc1)C(=O)N[C@@H](Cc1c[nH]c2ccccc12)C(N)=O [Compound No. 877, Ac-D-Tyr-Hyp-Asn-Thr-threo-Ser(3Phenyl)-AzaGly-Leu-Arg(Me)-Trp-NH2] (Ac-[dY][Hyp]NT[Phe(3R-OH)][azaGly]L[Arg(Me)]W-NH2)

Specific Activity: intracellular Ca ion level-increasing activity [specific activity to Metastin (1-54)]: 2.1
Compound: CNC(=N)NCCC[C@H](NC(=O)[C@H](CC(C)C)NC(=O)NNC(=O)[C@H](Cc1ccccc1)NC(=O)[C@@H](NC(=O)[C@H](CC(N)=O)NC(=O)[C@@H]1C[C@H](N)CN1C(=O)[C@@H](Cc1ccc(O)cc1)NC(C)=O)[C@@H](C)O)C(=O)N[C@@H](Cc1c[nH]c2ccccc12)C(N)=O [Compound No. 780, Ac-D-Tyr-Pro(4NH2)-Asn-Thr-Phe-AzaGly-Leu-Arg(Me)-Trp-NH2] (Ac-[dY][Pro(4S-NH2)]NTF[azaGly]L[Arg(Me)]W-NH2)

Specific Activity: intracellular Ca ion level-increasing activity [specific activity to Metastin (1-54)]: 1.5
Compound: CNC(=N)NCCC[C@H](NC(=O)[C@H](CC(C)C)NC(=O)NNC(=O)[C@H](Cc1ccccc1)NC(=O)[C@@H](NC(=O)[C@H](CC(N)=O)NC(=O)C(C)(C)NC(=O)[C@@H](Cc1ccc(O)cc1)NC(C)=O)[C@@H](C)O)C(=O)N[C@@H](Cc1c[nH]c2ccccc12)C(N)=O [Compound No. 727, Ac-D-Tyr-Aib-Asn-Thr-Phe-AzaGly-Leu-Arg(Me)-Trp-NH2] (Ac-[dY][Aib]NTF[azaGly]L[Arg(Me)]W-NH2)

Specific Activity: intracellular Ca ion level-increasing activity [specific activity to Metastin (1-54)]: 0.6
Compound: CNC(=N)NCCC[C@H](NC(=O)[C@H](CC(C)C)NC(=O)NNC(=O)[C@H](Cc1ccccc1)NC(=O)[C@@H](NC(=O)[C@H](CC(N)=O)NC(=O)[C@@H]1C[C@H](O)CN1C(=O)[C@@H](Cc1ccc(O)cc1)NC(C)=O)[C@@H](C)O)C(=O)N[C@@H](Cc1c[nH]c2ccccc12)C(N)=O [Compound No. 896, Ac-D-Tyr-cisHyp-Asn-Thr-Phe-AzaGly-Leu-Arg(Me)-Trp-NH2] (Ac-[dY][cisHyp]NTF[azaGly]L[Arg(Me)]W-NH2)

The next lines start with the compound.

Compound: CNC(=N)NCCC[C@H](NC(=O)[C@H](CC(C)C)NC(=O)NNC(=O)[C@H](Cc1ccccc1F)NC(=O)[C@@H](NC(=O)[C@H](CC(N)=O)NC(=O)[C@H](Cc1c[nH]c2ccccc12)NC(=O)[C@@H](Cc1ccc(O)cc1)NC(C)=O)[C@@H](C)O)C(=O)N[C@@H](Cc1c[nH]c2ccccc12)C(N)=O [Compound No. 764, Ac-D-Tyr-Trp-Asn-Thr-Phe(2F)-AzaGly-Leu-Arg(Me)-Trp-NH2] (Ac-[dY]WNT[Phe(2-F)][azaGly]L[Arg(Me)]W-NH2)
Specific Activity: intracellular Ca ion level-increasing activity [specific activity to Metastin (1-54)]: 1.5

Compound: CNC(=N)NCCC[C@H](NC(=O)[C@H](CC(C)C)NC(=O)NNC(=O)[C@H](Cc1ccc(F)cc1)NC(=O)[C@@H](NC(=O)[C@H](CC(N)=O)NC(=O)[C@@H]1C[C@@H](O)CN1C(=O)[C@@H](Cc1ccc(O)cc1)NC(C)=O)[C@@H](C)O)C(=O)N[C@@H](Cc1c[nH]c2ccccc12)C(N)=O [Compound No. 787, Ac-D-Tyr-Hyp-Asn-Thr-Phe(4F)-AzaGly-Leu-Arg(Me)-Trp-NH2] (Ac-[dY][Hyp]NT[Phe(4-F)][azaGly]L[Arg(Me)]W-NH2)
Specific Activity: intracellular Ca ion level-increasing activity [specific activity to Metastin (1-54)]: 2.3

Compound: CNC(=N)NCCC[C@H](NC(=O)[C@H](CC(C)C)NC(=O)NNC(=O)[C@H](Cc1ccccc1)NC(=O)c1ccc(NC(N)=O)cc1)C(=O)N[C@@H](Cc1c[nH]c2ccccc12)C(N)=O [Compound No. 860, 4-Ureidobenzoyl-Phe-AzaGly-Leu-Arg(Me)-Trp-NH2]
Specific Activity: intracellular Ca ion level-increasing activity [specific activity to Metastin (1-54)]: 1.3

Compound: CNC(=N)NCCC[C@H](NC(=O)[C@H](CC(C)C)NC(=O)NNC(=O)[C@H](Cc1ccc(Cl)cc1)NC(=O)[C@@H](NC(=O)[C@H](CC(N)=O)NC(=O)CNC(=O)[C@@H](Cc1ccc(O)cc1)NC(C)=O)[C@@H](C)O)C(=O)N[C@@H](Cc1c[nH]c2ccccc12)C(N)=O [Compound No. 769, Ac-D-Tyr-Gly-Asn-Thr-Phe(4Cl)-AzaGly-Leu-Arg(Me)-Trp-NH2] (Ac-[dY]GNT[Phe(4-Cl)][azaGly]L[Arg(Me)]W-NH2)
Specific Activity: intracellular Ca ion level-increasing activity [specific activity to Metastin (1-54)]: 1.5

Compound: CNC(=N)NCCC[C@H](NC(=O)[C@H](CC(C)C)NC(=O)NNC(=O)[C@H](Cc1ccccc1)NC(=O)[C@@H](NC(=O)[C@H](CNC(N)=O)NC(=O)[C@@H](Cc1c[nH]c2ccccc12)NC(=O)[C@@H](Cc1ccc(O)cc1)NC(C)=O)[C@@H](C)O)C(=O)N[C@@H](Cc1c[nH]c2ccccc12)C(N)=O [Compound No. 717, Ac-D-Tyr-D-Trp-Alb-Thr-Phe-AzaGly-Leu-Arg(Me)-Trp-NH2] (Ac-[dY][dW][Dap(CONH2)]TF[azaGly]L[Arg(Me)]W-NH2)
Specific Activity: intracellular Ca ion level-increasing activity [specific activity to Metastin (1-54)]: 1.0
